Measurements taken from patent US20240217961A1 (MONOPTEROS THERAPEUTICS, INC., priority 2021, published 2024).
≈ marks a conversion by molar mass, not a printed value. Read-outs that look alike come from different tables or passages of the source.

Experiments:
pKa of free form (UV) = type: physicochemical
[1] = Approximate solubility of free form in solvents at 25° C. (manual dilution, visual observation); type: physicochemical; conditions: thermodynamic from solid, read-out: Solubility (mg/mL) at 25° C.
Protocol: The experiment was conducted by manual dilution combined with visual observation at 25° C. The total volumes of solvents added were recorded.

human liver microsomes = assay: CYP phenotyping, human liver microsomes with or without specific chemical inhibitors; type: in vitro ADME; conditions: for Inhibition % / % Remaining at 60 min: human liver microsomes; for % Remaining at 60 min: mean ± SD, n = 3
Protocol: Human liver microsomes with or without specific inhibitors: By using human liver microsomes with chemical inhibitor, compared to without chemical inhibitor, the incubation was carried out at a concentration of 1 µM with samples taken 0, 15, 30, 45 and 60 min, and analyzed by UPLC-MS/MS to quantitate the concentration of parent remaining. The % remaining was calculated.

CYP2C8 = molecular target: T1, CYP2C8 (Homo sapiens, UniProt P10632); assay: CYP phenotyping, recombinant CYP enzyme incubation; type: in vitro ADME
T1 sequence (P10632 1-490): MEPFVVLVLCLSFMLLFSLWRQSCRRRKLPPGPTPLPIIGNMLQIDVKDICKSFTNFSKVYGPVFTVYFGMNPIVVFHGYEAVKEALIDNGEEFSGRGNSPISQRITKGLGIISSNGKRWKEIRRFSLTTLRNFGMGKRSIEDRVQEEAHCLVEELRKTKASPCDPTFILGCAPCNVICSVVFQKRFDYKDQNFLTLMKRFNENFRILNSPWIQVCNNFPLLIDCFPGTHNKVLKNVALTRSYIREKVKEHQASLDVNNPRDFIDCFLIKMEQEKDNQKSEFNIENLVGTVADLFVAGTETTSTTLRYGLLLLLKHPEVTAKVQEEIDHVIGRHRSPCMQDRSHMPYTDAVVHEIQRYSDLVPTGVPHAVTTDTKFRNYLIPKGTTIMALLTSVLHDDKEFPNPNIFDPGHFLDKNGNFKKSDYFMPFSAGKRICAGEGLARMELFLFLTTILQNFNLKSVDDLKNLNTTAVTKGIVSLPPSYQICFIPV
Protocol: These incubations were carried out at a concentration of 1 µM and contained 50 pmol/ml of CYP protein. Samples were taken at 0, 5, 10, 15, 20 and 30 minutes. The CLint and t1/2 were calculated from the data.

pKa (pKa of free form (UV)): 9.24
solubility ([1]; 1,4-dioxane, organic solvent or mixture): > 100 mg/mL
solubility ([1]; 2-propanol, organic solvent or mixture): 33.3 to 50 mg/mL (≈ 107 to 161 mM)
solubility ([1]; DMF, organic solvent or mixture): > 100 mg/mL
solubility ([1]; acetone, organic solvent or mixture): > 100 mg/mL
solubility ([1]; acetonitrile, organic solvent or mixture): 25 to 33.3 mg/mL (≈ 80.5 to 107 mM)
solubility ([1]; dichloromethane, organic solvent or mixture): > 100 mg/mL
solubility ([1]; ethanol, organic solvent or mixture): > 100 mg/mL
solubility ([1]; ethyl acetate, organic solvent or mixture): 50 to 100 mg/mL (≈ 161 to 322 mM)
solubility ([1]; heptane, organic solvent or mixture): 10 to 14.3 mg/mL (≈ 32.2 to 46.1 mM)
solubility ([1]; isopropyl acetate, organic solvent or mixture): 50 to 100 mg/mL (≈ 161 to 322 mM)
solubility ([1]; methanol, organic solvent or mixture): > 100 mg/mL
solubility ([1]; methyl ethyl ketone, organic solvent or mixture): > 100 mg/mL
solubility ([1]; t-butyl methyl ether, organic solvent or mixture): 25 to 33.3 mg/mL (≈ 80.5 to 107 mM)
solubility ([1]; tetrahydrofuran, organic solvent or mixture): > 100 mg/mL
solubility ([1]; toluene, organic solvent or mixture): > 100 mg/mL
solubility ([1]; water): < 2 mg/mL
inhibition % of (S)-mepazine metabolism (human liver microsomes; human liver microsomes with inhibitor of CYP2C8): < 20%
Inhibition % (human liver microsomes; CYP1A2 (Furafylline)): 31.6%
% Remaining at 60 min (human liver microsomes; CYP1A2 (Furafylline)): 55.3 ± 4.07%
Inhibition % (human liver microsomes; CYP2A6 (Tranylcypromine)): 25.6%
% Remaining at 60 min (human liver microsomes; CYP2A6 (Tranylcypromine)): 53.4 ± 2.69%
Inhibition % (human liver microsomes; CYP2B6 (Ticlopidine)): 22.8%
% Remaining at 60 min (human liver microsomes; CYP2B6 (Ticlopidine)): 52.6 ± 3.79%
Inhibition % (human liver microsomes; CYP2C8 (Montelukast)): 19.3%
% Remaining at 60 min (human liver microsomes; CYP2C8 (Montelukast)): 50.5 ± 4.24%
Inhibition % (human liver microsomes; CYP2C9 (Sulfaphenazole)): 33.9%
% Remaining at 60 min (human liver microsomes; CYP2C9 (Sulfaphenazole)): 57.4± 2.68%
Inhibition % (human liver microsomes; CYP2C19 (N-3-benzylnirvanol)): 24.3%
% Remaining at 60 min (human liver microsomes; CYP2C19 (N-3-benzylnirvanol)): 53.1 ± 1.75%
Inhibition % (human liver microsomes; CYP2D6 (Quinidine)): 74.4%
% Remaining at 60 min (human liver microsomes; CYP2D6 (Quinidine)): 80.9 ± 3.69%
Inhibition % (human liver microsomes; CYP3A (Ketoconazole)): 21.4%
% Remaining at 60 min (human liver microsomes; CYP3A (Ketoconazole)): 50.2 ± 4.00%
Inhibition % (human liver microsomes; Without inhibitor): 0.00%
% Remaining at 60 min (human liver microsomes; Without inhibitor): 44.7 ± 2.57%
Contribution % (CYP2C8; CYP2C8): 12.8%
contribution % (CYP2C8; CYP2C8): 12.8%
half-life at 1 µM (CYP2C8; human, recombinant CYP2C8, 1 µM, 50 pmol/ml of CYP protein, mean ± SD, n = 3): 57.2 ± 14.4 min
CLint (CYP2C8; recombinant CYP2C8, 1 µM, 50 pmol/ml of CYP protein, mean ± SD, n = 3): 0.254 ± 0.0720 μL/min/pmol CYP
CLint (CYP2C8; recombinant CYP2C8, 1 µM, 50 pmol/ml CYP protein): 0.254 µL/min/pmol
Structure (SMILES): CN1CCC[C@H](CN2c3ccccc3Sc3ccccc32)C1 [(S)-mepazine, (S)-10-((1-methylpiperidin-3-yl)methyl)-10H-phenothiazine]
